Article PMC7984827, “A high-content AlphaScreen™ identifies E6-specific small molecule inhibitors as potential therapeutics for HPV^+ head and neck squamous cell carcinomas” (Oncotarget, 2021)
Like-named read-outs stand apart in the source and are kept apart here.

Columns and labels:
[1] = molecular target: T1, E6-Caspase 8 binding (Human papillomavirus type 16, UniProt P03126); test: biochemical; set-up: species or system HPV E6, human Caspase 8; settings: for inhibitory activity against E6-caspase 8 binding relative to GA (in words): SAR of analogs, Figure 6A; for activity against E6-caspase 8 binding, deviation from the parent compound (less active): relative to gambogic acid
T1 construct: made in house; host or cells: E. coli
T1 sequence (P03126 whole entry): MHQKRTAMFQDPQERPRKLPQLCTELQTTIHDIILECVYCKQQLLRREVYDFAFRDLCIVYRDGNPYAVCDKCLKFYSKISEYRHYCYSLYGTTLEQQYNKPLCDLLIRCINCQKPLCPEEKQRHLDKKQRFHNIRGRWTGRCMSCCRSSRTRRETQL
Method: The compounds were diluted to a working concentration in DMSO and screened at a single-point final concentration of 10 μM with no replicates. Briefly, 75 nL of each compound was transferred and added to wells of the destination 384-well plate using the Echo dispenser to 4 μL of blocking solution. 4 μL of 800 nM GST-E6 and 4 μL of His6-Caspase 8 were added and pre-incubated at room temperature for 60 minutes. 8 μL of the donor and acceptor bead mixture (final concentration of 20 μg/ml) was then added. The plates were sealed and incubated for 4 hours at room temperature before the plates were read using the EnvisionTM Multi-Label plate reader (Perkin Elmer Inc.). […] A 10-point serial dilution of these compounds was done for dose-dependency reconfirmation. Dose response inhibition curves were constructed and IC50 calculated using GraphPad Prism using four parameter non-linear regression analysis.
The first counter-screen assay was based using the GST-His6 fusion peptide as the E6-binding partner instead of GST-E6-His6-Caspase 8. Hit candidate compounds from the primary screen were prepared using a 6-point serial dilution. Using an Echo dispenser, compounds were transferred to plates containing 4 μL of blocking buffer. 8 μL of 5 nM GST-His6 peptide substrate was then added. The mixture was pre-incubated at room temperature for 60 minutes. Glutathione donor and nickel chelate acceptor beads (final concentration 20 μg/mL) were added and incubated for another 60 minutes at room temperature. Dose-dependency of the compounds using GST-E6-His6-Caspase 8 was performed in parallel using the same protocol as in the primary screen. The signals were then read using the Envision™ plate reader.
(§1) Using the SciFinder and Zinc15 databases, we searched and identified several gambogic acid structural analogs. A subset of these analogues was commercially available and we purchased 8. The 8 analogs were obtained as follow: gambogenic amide (Enzo Life Sciences), gambogenic acid (Selleckchem), morellic acid (Aobious), 30-hydroxy gambogic acid (Quality Phytochemicals, LLC), acetyl gambogic acid (Microsource), and gambogin, neogambogic acid and isomorellinol (MolPort Natural Products). Additional gambogic acid was purchased from Tocris. The interactions of the analogues with E6-caspase 8 was tested using AlphaScreen™ technology using the same protocol as with the primary screen, and were compared to the parent compound. The effect on cell viability was also similarly done in HPV^+ and HPV^- cell lines via the MTT assay (see below) and potency was determined using GraphPad IC50 curve fitting.

[2] = tested on: HPV+ HNSCC cell line SCC104; test: MTT cell viability assay of analogs in SCC104; assay type: cell-based; settings: SCC104, 24 hr; for activity / potency in cell-based MTT assay (in words): Figure 6B
Text: as §1
(§2) All working concentrations were diluted in PBS to the desired concentration before use. To test the effect of gambogic acid and/or its derivatives on cell viability, all cell lines were seeded at 2 × 10^4 per well in 96-well plates and allowed to adhere overnight. Various concentrations of the analogues were added and the cells incubated at 37°C for 24 hr. Viability was then measured using the MTT assay, performed as described previously. All experiments were repeated at least three times (three biological replicates, carried out on different days). Data presented are from a representative experiment. Cell viability and potency were assessed from % inhibition relative to the vehicle control, and IC50 dose curves were generated using GraphPad Prism.

[3] = molecular target: T2, E6-E6AP binding (Human papillomavirus type 16, UniProt P03126); test: biochemical; set-up: species or system HPV E6
T2 construct: made in house; host or cells: E. coli
T2 sequence (P03126 whole entry): as above
Text: Compounds that passed the two counter-screens were subjected to cheminformatic analysis as an additional filter for recognition and exclusion of compounds with problematic substructures. These substructures contain functional groups that may disrupt binding in many unrelated biochemical assays in a non-specific manner. Specifically, from the names and SMILES of the hit compounds we queried the following databases to find hits with pan assay interference (PAINS) patterns: Zinc15, SwissADME, FAFdrugs4 and PAINS-Remover. Compounds that made it onto the consensus list as having no PAINS patterns after filtering with these online tools were then selected. We then cross-validated the selected compound(s) with a related but different primary screen assay. Specifically, we replaced the caspase 8 used in the primary screen with E6AP and evaluated the inhibitory activity against E6 binding to E6AP (E6-E6AP) using the same steps as in the AlphaScreen™ protocol described above.

[4] = set-up: method as in PMID 18384990, PMID 29077076; settings: toxicities to organs only at high concentrations; cited from earlier work
[5] = tested on: HPV+ (SCC47, SCC090, SCC104, SCC152) and HPV- (SCC19, SCC29, SCC49, SCC84) HNSCC cell lines; test: MTT cell viability, HNSCC cell line panel; assay type: cell-based; settings: 24 hr, Figure 7A
Method: as §2

[6] = tested on: SCC104 (HPV+); test: Colony formation assay, SCC104; assay type: cell-based; settings: 24 hours treatment then seeded
Method: (§3) Sub-confluent monolayer cells were treated with different doses of GA-OH for 24 hours. Cells were trypsinized and re-suspended before re-plating into 6 well plates in DMEM or MEM at 500–1000 cell densities, depending on the cell line. Cells were then allowed to grow for 10–20 days, depending on the cell line, before fixing and staining. A mixture of methanol/acetic acid was used for fixing, followed by 0.5% crystal violet staining. Plates were imaged using UV imager, and colonies with more than […] counted using image J. Surviving fractions were determined by dividing the number of colonies by the number of cells seeded as a product of the corresponding plating efficiency. Survival fractions curves were plotted using GraphPad Prism.

[7] = tested on: SCC19 (HPV-); test: Colony formation assay, SCC19; assay type: cell-based; settings: 24 hours treatment then seeded
Method: as §3

[8] = tested on: p53, p21, caspase 8 in SCC90 and SCC104 cells; test: Western blotting of p53, p21 and caspase 8 in HPV+ cells; assay type: cell-based; settings: 24 hours
Method: Adherent cells were washed with ice cold PBS. Cell lysis buffer containing protease inhibitor cocktail was added and cells were scraped off into a tube on ice. The cells were incubated on ice for 10 minutes. Cell lysates were separated by SDS-PAGE and electrophoretically transferred to PVDF membranes. Following blocking, antibodies directed against caspase 8, p53, cleaved PARP, cleaved caspase 3, p21, and β-actin (Cell signaling) were applied at 1:5000 dilution. Anti-mouse and anti-rabbit secondary antibodies were then employed (LI-COR Biosciences, Lincoln, NE, USA). Signals were measured using the Odyssey Infrared Imaging system (LI-COR Biosciences) and quantified using Image J.

[9] = tested on: Caspase 3/7 activity in SCC090, SCC104, SiHa; test: Caspase 3/7 Glo activity assay, HPV+ cell lines; assay type: cell-based; settings: 0.75 μM, 24 hr
Method: (§4) Cells were seeded into white walled 96-well plates at 2 × 10^4 cells per well in 100 μL media and incubated overnight. GA-OH (0.75 μM) and vehicle were then added and incubated at 37°C for 24 hr. Caspase 3/7 activity was measured using the Caspase 3/7 Glo kit (Promega, Fitchburg, WI, USA) following the manufacturer's instructions. Briefly, room temperature-equilibrated Caspase-Glo reagent was added (Promega) to each well. The plate was mixed by placing it on an orbital shaker and incubated for 30 secs at room temperature, then incubated at room temperature. After a 2-hr incubation, luminescence was measured using a plate-reading fluorimeter (Flx800, Bio-Tek Instrument Co., Winooski, VT, USA). Background activity (blank reaction) was subtracted from all experimental wells. Percent activity of caspase 3/7 in wells treated with GA was then expressed relative to vehicle treated wells.

[10] = tested on: Caspase 3/7 activity in SCC19, SCC84; test: Caspase 3/7 Glo activity assay, HPV- cell lines; assay type: cell-based; settings: 0.75 μM, 24 hr
Method: as §4

CC(=O)Oc1c2c(c(CC=C(C)C)c3c1C(=O)C1=C[C@@H]4CC5C(C)(C)OC(C/C=C(\C)C(=O)O)(C4=O)[C@@]15O3)OC(C)(CCC=C(C)C)C=C2 (stereo partly drawn) [analog #8, acetyl iso-gambogic acid]
inhibitory activity against E6-caspase 8 binding relative to GA (in words) [1]: did not significantly affect the activity
activity / potency in cell-based MTT assay (in words) [2]: diminished activity

CC(C)=CCC[C@]1(C)C=Cc2c(O)c3c(c(CC=C(C)C)c2O1)O[C@]12C(=C[C@@H]4C[C@H]1C(C)(C)O[C@@]2(C/C=C(/C)C(=O)O)C4=O)C3=O [gambogic acid]
IC50 ([1]; 11 compounds that passed counter-screening (Supplementary Table 3), read-out: IC50 against E6-Caspase 8 binding): 2000 nM
IC50 ([1]; head-to-head comparison gambogic acid vs myricetin (Figure 4A), read-out: IC50 against E6-Caspase 8): 1900 nM
IC50 [3]: 1700 nM
tolerability in animal studies [4]: relatively tolerable

CC(C)=CCCC1(C)C=Cc2c(O)c3c(c(CC=C(C)C)c2O1)O[C@]12C(=CC4C[C@H]1C(C)(C)OC2(CC=C(C)C)C4=O)C3=O (stereo partly drawn) [analog #6, gambogin]
activity against E6-caspase 8 binding, deviation from the parent compound (less active) [1]: > 3 logs
rank of highest IC50 relative to the parent compound, MTT [2]: first

CC(C)=CCCC1(C)C=Cc2c(O)c3c(c(CC=C(C)C)c2O1)OC12C(=CC4CC1C(C)(C)OC2(CC=C(CO)C(=O)O)C4=O)C3=O (stereo not drawn) [GA-OH, 30-hydroxygambogic acid]
inhibitory activity against E6-caspase 8 binding relative to GA (in words) [1]: more effectively inhibited E6 binding to caspase 8 than any of the other analogs or the parent compound
activity / potency in cell-based MTT assay (in words) [2]: highest potency of all analogs
sensitivity of HPV+ versus HPV- HNSCC cell lines, MTT cell viability [5]: higher sensitivity
number of colonies [6]: significantly and dose-dependently reduced
number of colonies [7]: did not exhibit significant reduction relative to their control except at high concentrations
caspase 8 cleavage by western blot ([8]; HPV+ cells, 0.5 μM and 1 μM): cleavage of caspase 8 in a dose-dependent manner
p53 level by immunoblotting ([8]; SCC90 and SCC104, 0.5 μM and 1 μM): increase of p53
p21 level by immunoblotting ([8]; compared to vehicle control, 0.5 μM and 1 μM): robust induction
apoptosis induction (Caspase 3/7 activity) [9]: Significant apoptosis induction
apoptosis activity (Caspase 3/7 activity) [10]: little to no apoptosis activity

O=c1c(O)c(-c2cc(O)c(O)c(O)c2)oc2cc(O)cc(O)c12 [myricetin, reference compound]
IC50 ([1]; IC50 against E6-Caspase 8): 4600 nM
IC50 [3]: 5600 nM

CC(C)=CCC[C@]1(C)C=Cc2c(O)c3c(c(CC=C(C)C)c2O1)O[C@]12C(=C[C@@H]4CC1C(C)(C)O[C@@]2(C/C=C(/C)C(N)=O)C4=O)C3=O [analog #4, gambogic amide]
inhibitory activity against E6-caspase 8 binding relative to GA (in words) [1]: did not significantly affect the activity

CC(C)=CCC/C(C)=C/Cc1c(O)c(CC=C(C)C)c2c(c1O)C(=O)C1=C[C@@H]3C[C@H]4C(C)(C)O[C@@](C/C=C(/C)C(=O)O)(C3=O)[C@@]14O2 [analog #3, gambogenic acid]
activity against E6-caspase 8 binding, deviation from the parent compound (less active) [1]: > 3 logs
rank of highest IC50 relative to the parent compound, MTT [2]: third

CC(C)=CCCC1(C)CC(O)c2c(O)c3c(c(CC=C(C)C)c2O1)OC12C(=CC4CC1C(C)(C)OC2(C/C=C(\C)C(=O)O)C4=O)C3=O (stereo not drawn) [analog #5, neo-gambogic acid]
activity against E6-caspase 8 binding, deviation from the parent compound (less active) [1]: > 3 logs
rank of highest IC50 relative to the parent compound, MTT [2]: fourth

CC(C)=CCc1c2c(c(O)c3c1O[C@]14C(=C[C@@H]5C[C@H]1C(C)(C)O[C@@]4(C/C=C(/C)C(=O)O)C5=O)C3=O)C=CC(C)(C)O2 [analog #2, morellic acid]
inhibitory activity against E6-caspase 8 binding relative to GA (in words) [1]: did not significantly affect the activity

CC(C)=CCc1c2c(c(O)c3c1OC14C(=CC5CC1C(C)(C)OC4(C/C=C(\C)CO)C5=O)C3=O)C=CC(C)(C)O2 (stereo not drawn) [analog #7, iso morellinol]
inhibitory activity against E6-caspase 8 binding relative to GA (in words) [1]: did not significantly affect the activity
